Experimental data taken from ChEMBL document CHEMBL3045767, “Synthesis of novel 2-[4-(4-substitutedbenzamido/phenylacetamido)phenyl]benzothiazoles as antimicrobial agents” (2012).
In brackets after ≈: the same amount, converted by molar mass.

Key:
Format in all cases: functional
[1] = tested on: Candida albicans; assay: Antifungal activity against Candida albicans ATCC 10231 after 48 hr by CLSI broth microdilution method; conditions: ATCC 10231, 48 h
[2] = tested on: Bacillus subtilis; assay: Antibacterial activity against ceftriaxon-resistant Bacillus subtilis after 24 hr by CLSI broth microdilution method
[3] = tested on: Klebsiella pneumoniae; assay: Antibacterial activity against Klebsiella pneumoniae producing extended spectrum beta lactamase enzyme after 24 hr by CLSI broth microdilution method
[4] = tested on: Pseudomonas aeruginosa; assay: Antibacterial activity against Pseudomonas aeruginosa ATCC […] after 24 hr by CLSI broth microdilution method
[5] = tested on: Escherichia coli; assay: Antibacterial activity against Escherichia coli producing extended spectrum beta lactamase enzyme after 24 hr by CLSI broth microdilution method
[6] = tested on: Escherichia coli; assay: Antibacterial activity against Escherichia coli ATCC 25922 after 24 hr by CLSI broth microdilution method
[7] = tested on: Pseudomonas aeruginosa; assay: Antibacterial activity against gentamicin-resistant Pseudomonas aeruginosa after 24 hr by CLSI broth microdilution method
[8] = tested on: Staphylococcus aureus; assay: Antibacterial activity against methicillin-resistant Staphylococcus aureus after 24 hr by CLSI broth microdilution method
[9] = tested on: Bacillus subtilis; assay: Antibacterial activity against Bacillus subtilis ATCC 6633 after 24 hr by CLSI broth microdilution method
[10] = tested on: Klebsiella pneumoniae; assay: Antibacterial activity against Klebsiella pneumoniae RSKK 574 after 24 hr by CLSI broth microdilution method
[11] = tested on: Staphylococcus aureus; assay: Antibacterial activity against Staphylococcus aureus ATCC 25923 after 24 hr by CLSI broth microdilution method
[12] = tested on: Candida albicans; assay: Antifungal activity against Candida albicans
[13] = tested on: Pseudomonas aeruginosa; assay: Ratio of ofloxacin MIC to compound MIC for gentamicin-resistant Pseudomonas aeruginosa
[14] = tested on: Pseudomonas aeruginosa; assay: Ratio of gentamycin sulfate MIC to compound MIC for gentamicin-resistant Pseudomonas aeruginosa
[15] = tested on: Staphylococcus aureus; assay: Antibacterial activity against Staphylococcus aureus

Compound | MIC [1] | MIC [2] | MIC [3] | MIC ([4]; ATCC 25853, 24 h) | MIC [5] | MIC ([6]; ATCC 25922, 24 h) | MIC [7] | MIC [8] | MIC ([9]; ATCC 6633, 24 h) | MIC ([10]; RSKK 574, 24 h) | MIC ([11]; ATCC 25923, 24 h) | MIC [12] | Ratio [13] | Ratio [14] | MIC [15] | MIC [4] | MIC [6] | MIC [9] | MIC [10] | MIC [11]
C[C@@H]1[C@H](O)[C@@H](C)/C=C/C=C/C=C/C=C/C=C/C=C/C=C/[C@H](O[C@@H]2O[C@H](C)[C@@H](O)[C@H](N)[C@@H]2O)C[C@@H]2O[C@](O)(C[C@@H](O)C[C@@H](O)[C@H](O)CC[C@@H](O)C[C@@H](O)CC(=O)O[C@H]1C)C[C@H](O)[C@H]2C(=O)O [AMPHOTERICIN B] | 0.78 µg/mL (≈ 0.844 µM) | – | – | – | – | – | – | – | – | – | – | – | – | – | – | – | – | – | – | –
O=C(Cc1ccc(Cl)cc1)Nc1ccc(-c2nc3ccccc3s2)cc1 | 25 µg/mL (≈ 66 µM) | 50 µg/mL (≈ 132 µM) | 50 µg/mL (≈ 132 µM) | 25 µg/mL (≈ 66 µM) | 50 µg/mL (≈ 132 µM) | 50 µg/mL (≈ 132 µM) | 25 µg/mL (≈ 66 µM) | 50 µg/mL (≈ 132 µM) | 50 µg/mL (≈ 132 µM) | 50 µg/mL (≈ 132 µM) | 50 µg/mL (≈ 132 µM) | – | – | – | – | – | – | – | – | –
c1ccc(CCc2nc3ccccc3s2)cc1 [2-PHENETHYLBENZO[D]THIAZOLE] | – | – | – | – | – | – | – | – | – | – | – | 3.12 µg/mL (≈ 13 µM) | – | – | – | – | – | – | – | –
COc1ccc(CC(=O)Nc2ccc(-c3nc4ccccc4s3)cc2)cc1 | 12.5 µg/mL (≈ 33.4 µM) | 50 µg/mL (≈ 134 µM) | 50 µg/mL (≈ 134 µM) | 25 µg/mL (≈ 66.8 µM) | 25 µg/mL (≈ 66.8 µM) | 12.5 µg/mL (≈ 33.4 µM) | 6.25 µg/mL (≈ 16.7 µM) | 12.5 µg/mL (≈ 33.4 µM) | 12.5 µg/mL (≈ 33.4 µM) | 12.5 µg/mL (≈ 33.4 µM) | 50 µg/mL (≈ 134 µM) | – | 3 | 3 | – | – | – | – | – | –
O=C(Nc1ccc(-c2nc3ccccc3s2)cc1)c1ccc([N+](=O)[O-])cc1 | 12.5 µg/mL (≈ 33.3 µM) | 50 µg/mL (≈ 133 µM) | 50 µg/mL (≈ 133 µM) | 25 µg/mL (≈ 66.6 µM) | 50 µg/mL (≈ 133 µM) | 25 µg/mL (≈ 66.6 µM) | 25 µg/mL (≈ 66.6 µM) | 12.5 µg/mL (≈ 33.3 µM) | 50 µg/mL (≈ 133 µM) | 50 µg/mL (≈ 133 µM) | 50 µg/mL (≈ 133 µM) | – | – | – | – | – | – | – | – | –
O=C(Cc1ccc(F)cc1)Nc1ccc(-c2nc3ccccc3s2)cc1 | 25 µg/mL (≈ 69 µM) | 25 µg/mL (≈ 69 µM) | 50 µg/mL (≈ 138 µM) | 25 µg/mL (≈ 69 µM) | 50 µg/mL (≈ 138 µM) | 25 µg/mL (≈ 69 µM) | 25 µg/mL (≈ 69 µM) | 50 µg/mL (≈ 138 µM) | 50 µg/mL (≈ 138 µM) | 50 µg/mL (≈ 138 µM) | 100 µg/mL (≈ 276 µM) | – | – | – | – | – | – | – | – | –
CC(C)(C)c1ccc(C(=O)Nc2ccc(-c3nc4ccccc4s3)cc2)cc1 | 12.5 µg/mL (≈ 32.3 µM) | 100 µg/mL (≈ 259 µM) | 50 µg/mL (≈ 129 µM) | 25 µg/mL (≈ 64.7 µM) | 50 µg/mL (≈ 129 µM) | 25 µg/mL (≈ 64.7 µM) | 25 µg/mL (≈ 64.7 µM) | 12.5 µg/mL (≈ 32.3 µM) | 50 µg/mL (≈ 129 µM) | 25 µg/mL (≈ 64.7 µM) | 50 µg/mL (≈ 129 µM) | – | – | – | – | – | – | – | – | –
c1ccc(OCc2nc3ccccc3s2)cc1 [2-(PHENOXYMETHYL)BENZOTHIAZOLE] | – | – | – | – | – | – | – | – | – | – | – | 3.12 µg/mL (≈ 12.9 µM) | – | – | 3.12 µg/mL (≈ 12.9 µM) | – | – | – | – | –
Cc1ccc(CC(=O)Nc2ccc(-c3nc4ccccc4s3)cc2)cc1 | 25 µg/mL (≈ 69.7 µM) | 50 µg/mL (≈ 139 µM) | 50 µg/mL (≈ 139 µM) | 25 µg/mL (≈ 69.7 µM) | 50 µg/mL (≈ 139 µM) | 50 µg/mL (≈ 139 µM) | 25 µg/mL (≈ 69.7 µM) | 25 µg/mL (≈ 69.7 µM) | 50 µg/mL (≈ 139 µM) | 25 µg/mL (≈ 69.7 µM) | 50 µg/mL (≈ 139 µM) | – | – | – | – | – | – | – | – | –
O=C(Nc1ccc(-c2nc3ccccc3s2)cc1)c1ccc(Cl)cc1 | 25 µg/mL (≈ 68.5 µM) | 50 µg/mL (≈ 137 µM) | 25 µg/mL (≈ 68.5 µM) | 25 µg/mL (≈ 68.5 µM) | 50 µg/mL (≈ 137 µM) | 50 µg/mL (≈ 137 µM) | 25 µg/mL (≈ 68.5 µM) | 12.5 µg/mL (≈ 34.3 µM) | 50 µg/mL (≈ 137 µM) | 50 µg/mL (≈ 137 µM) | 50 µg/mL (≈ 137 µM) | – | – | – | – | – | – | – | – | –
O=C(Nc1ccc(-c2nc3ccccc3s2)cc1)c1ccc(F)cc1 | 25 µg/mL (≈ 71.8 µM) | 50 µg/mL (≈ 144 µM) | 50 µg/mL (≈ 144 µM) | 25 µg/mL (≈ 71.8 µM) | 50 µg/mL (≈ 144 µM) | 50 µg/mL (≈ 144 µM) | 25 µg/mL (≈ 71.8 µM) | 25 µg/mL (≈ 71.8 µM) | 50 µg/mL (≈ 144 µM) | 25 µg/mL (≈ 71.8 µM) | 50 µg/mL (≈ 144 µM) | – | – | – | – | – | – | – | – | –
CCc1ccc(C(=O)Nc2ccc(-c3nc4ccccc4s3)cc2)cc1 | 12.5 µg/mL (≈ 34.9 µM) | 50 µg/mL (≈ 139 µM) | 50 µg/mL (≈ 139 µM) | 25 µg/mL (≈ 69.7 µM) | 50 µg/mL (≈ 139 µM) | 25 µg/mL (≈ 69.7 µM) | 25 µg/mL (≈ 69.7 µM) | 6.25 µg/mL (≈ 17.4 µM) | 50 µg/mL (≈ 139 µM) | 25 µg/mL (≈ 69.7 µM) | 50 µg/mL (≈ 139 µM) | – | – | – | – | – | – | – | – | –
CO[C@H]1/C=C/O[C@@]2(C)Oc3c(C)c(O)c4c(O)c(c(/C=N/N5CCN(C)CC5)c(O)c4c3C2=O)NC(=O)/C(C)=C\C=C\[C@H](C)[C@H](O)[C@@H](C)[C@@H](O)[C@@H](C)[C@H](OC(C)=O)[C@@H]1C [RIFAMPIN] | – | 3.12 µg/mL (≈ 3.8 µM) | – | – | – | – | – | 1.56 µg/mL (≈ 1.9 µM) | 0.19 µg/mL (≈ 0.231 µM) | – | 0.0225 µg/mL (≈ 0.0273 µM) | – | – | – | – | – | – | – | – | –
c1ccc2sc(CCC3CCCCC3)nc2c1 | – | – | – | – | – | – | – | – | – | – | – | 3.12 µg/mL (≈ 12.7 µM) | – | – | – | – | – | – | – | –
c1ccc(SCc2nc3ccccc3s2)cc1 [2-(PHENYLTHIOMETHYL)BENZO[D]THIAZOLE] | – | – | – | – | – | – | – | – | – | – | – | 3.12 µg/mL (≈ 12.1 µM) | – | – | – | – | – | – | – | –
OC(Cn1cncn1)(Cn1cncn1)c1ccc(F)cc1F [FLUCONAZOLE] | 0.78 µg/mL (≈ 2.55 µM) | – | – | – | – | – | – | – | – | – | – | – | – | – | – | – | – | – | – | –
O=C(Cc1ccc(Br)cc1)Nc1ccc(-c2nc3ccccc3s2)cc1 | 12.5 µg/mL (≈ 29.5 µM) | 50 µg/mL (≈ 118 µM) | 50 µg/mL (≈ 118 µM) | 12.5 µg/mL (≈ 29.5 µM) | 50 µg/mL (≈ 118 µM) | 25 µg/mL (≈ 59.1 µM) | 25 µg/mL (≈ 59.1 µM) | 25 µg/mL (≈ 59.1 µM) | 50 µg/mL (≈ 118 µM) | 50 µg/mL (≈ 118 µM) | 50 µg/mL (≈ 118 µM) | – | – | – | – | – | – | – | – | –
O=C(Nc1ccc(-c2nc3ccccc3s2)cc1)c1ccc(Br)cc1 | 25 µg/mL (≈ 61.1 µM) | 100 µg/mL (≈ 244 µM) | 50 µg/mL (≈ 122 µM) | 25 µg/mL (≈ 61.1 µM) | 50 µg/mL (≈ 122 µM) | 50 µg/mL (≈ 122 µM) | 25 µg/mL (≈ 61.1 µM) | 25 µg/mL (≈ 61.1 µM) | 50 µg/mL (≈ 122 µM) | 50 µg/mL (≈ 122 µM) | 50 µg/mL (≈ 122 µM) | – | – | – | – | – | – | – | – | –
Clc1ccc(OCc2nc3ccccc3s2)cc1 | – | – | – | – | – | – | – | – | – | – | – | 3.12 µg/mL (≈ 11.3 µM) | – | – | – | – | – | – | – | –
GENTAMICIN SULFATE | – | 0.19 µg/mL | 6.25 µg/mL | – | 12.5 µg/mL | – | 50 µg/mL | 6.25 µg/mL | – | – | – | – | – | – | – | 1.56 µg/mL | 0.78 µg/mL | 0.39 µg/mL | 0.39 µg/mL | 0.78 µg/mL
CC1(C)S[C@@H]2[C@H](NC(=O)[C@H](N)c3ccccc3)C(=O)N2[C@H]1C(=O)O.O.O.O [AMPICILLIN TRIHYDRATE] | – | 0.78 µg/mL | – | – | 400 µg/mL | 3.12 µg/mL | – | – | 0.78 µg/mL | – | 0.78 µg/mL | – | – | – | – | – | – | – | – | –
CC1COc2c(N3CCN(C)CC3)c(F)cc3c(=O)c(C(=O)O)cn1c23 (stereo not given) [OFLOXACIN] | – | 3.12 µg/mL (≈ 8.65 µM) | 3.12 µg/mL (≈ 8.65 µM) | 6.25 µg/mL (≈ 17.3 µM) | 6.25 µg/mL (≈ 17.3 µM) | 0.19 µg/mL (≈ 0.526 µM) | 50 µg/mL (≈ 138 µM) | 1.56 µg/mL (≈ 4.32 µM) | 0.19 µg/mL (≈ 0.526 µM) | 0.19 µg/mL (≈ 0.526 µM) | 0.19 µg/mL (≈ 0.526 µM) | – | – | – | – | – | – | – | – | –
